Assay [1] can be described thus: Binding affinity against cathepsin B.
Assay [2] is described as follows: Binding affinity against cathepsin L.
Another assay addresses Cysteine proteinase B (Leishmania mexicana, UniProt P36400). In words: Binding affinity against Leishmania mexicana cysteine peptidase B (CPB).
Another assay has as its target Cruzipain (Trypanosoma cruzi, UniProt P25779). In words: Binding affinity against cruzaine.
For a further assay, the target named is T1, Cathepsin K (Homo sapiens, UniProt P43235).
T1 sequence (P43235 whole entry): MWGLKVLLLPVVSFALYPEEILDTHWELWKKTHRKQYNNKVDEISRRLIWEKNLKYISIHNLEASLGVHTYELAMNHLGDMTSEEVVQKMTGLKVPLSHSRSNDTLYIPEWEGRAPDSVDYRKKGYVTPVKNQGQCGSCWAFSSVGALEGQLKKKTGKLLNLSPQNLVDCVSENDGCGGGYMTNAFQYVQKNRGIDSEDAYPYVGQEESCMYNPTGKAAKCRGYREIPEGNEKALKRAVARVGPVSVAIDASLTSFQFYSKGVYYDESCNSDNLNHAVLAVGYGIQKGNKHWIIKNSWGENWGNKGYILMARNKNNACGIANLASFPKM
Nature of the assay: Binding affinity against human cathepsin K.

In the next assay the target is Cathepsin S (Homo sapiens, UniProt P25774). In words: Binding affinity against cathepsin S.
Cathepsin S, sequence (P25774 whole entry): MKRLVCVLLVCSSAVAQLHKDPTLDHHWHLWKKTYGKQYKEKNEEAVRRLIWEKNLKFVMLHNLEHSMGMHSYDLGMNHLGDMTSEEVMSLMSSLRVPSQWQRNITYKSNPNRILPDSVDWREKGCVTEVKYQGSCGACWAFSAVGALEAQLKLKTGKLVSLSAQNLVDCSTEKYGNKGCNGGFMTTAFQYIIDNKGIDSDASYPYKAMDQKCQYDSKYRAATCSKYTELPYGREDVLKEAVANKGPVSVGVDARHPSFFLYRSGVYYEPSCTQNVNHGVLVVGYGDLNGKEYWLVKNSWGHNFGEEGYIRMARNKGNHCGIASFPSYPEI

Cysteine proteinase B, sequence (P36400 whole entry): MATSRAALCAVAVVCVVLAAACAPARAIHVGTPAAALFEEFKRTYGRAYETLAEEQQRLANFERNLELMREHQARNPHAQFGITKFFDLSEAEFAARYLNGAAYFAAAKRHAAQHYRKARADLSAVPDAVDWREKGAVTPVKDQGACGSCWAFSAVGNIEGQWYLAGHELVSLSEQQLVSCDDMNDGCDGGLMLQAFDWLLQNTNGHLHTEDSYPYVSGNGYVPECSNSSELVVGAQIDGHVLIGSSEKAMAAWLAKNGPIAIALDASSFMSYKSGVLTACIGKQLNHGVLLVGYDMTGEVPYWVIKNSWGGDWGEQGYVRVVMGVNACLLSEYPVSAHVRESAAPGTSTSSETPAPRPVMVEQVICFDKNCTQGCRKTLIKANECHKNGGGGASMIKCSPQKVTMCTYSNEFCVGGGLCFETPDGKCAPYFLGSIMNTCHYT
Cruzipain, sequence (P25779 whole entry): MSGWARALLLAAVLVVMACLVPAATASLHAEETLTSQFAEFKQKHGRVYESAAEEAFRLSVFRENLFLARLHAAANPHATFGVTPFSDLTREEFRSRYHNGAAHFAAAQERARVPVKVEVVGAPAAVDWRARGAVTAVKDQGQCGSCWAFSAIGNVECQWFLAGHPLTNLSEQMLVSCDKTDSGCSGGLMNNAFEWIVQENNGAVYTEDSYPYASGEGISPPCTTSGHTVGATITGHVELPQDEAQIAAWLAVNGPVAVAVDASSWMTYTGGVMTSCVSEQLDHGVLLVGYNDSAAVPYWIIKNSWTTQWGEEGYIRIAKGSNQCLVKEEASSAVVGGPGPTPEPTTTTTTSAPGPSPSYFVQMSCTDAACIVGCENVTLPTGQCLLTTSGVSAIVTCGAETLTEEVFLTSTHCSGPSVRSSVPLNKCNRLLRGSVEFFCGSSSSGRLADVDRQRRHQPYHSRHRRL

Take `CC(C)C[C@H](NC(=O)c1ccc(C(C)(C)C)cc1)C(=O)N1NC[C@@H]2[C@H]1C(=O)CN2C(=O)c1ccccc1`: the Ki – broadly, a measure of affinity in units of concentration, obtained from inhibition or displacement – in assay [1] was found to be 119 nM; in assay [2], 370 nM; on Cysteine proteinase B, 49.5 nM; on Cruzipain, 93.2 nM; at Cathepsin K, 3.5 nM; on Cathepsin S, 434 nM.

As to `CC(C)C[C@H](NC(=O)c1ccc(N(C)C)cc1)C(=O)N1CC[C@@H]2[C@H]1C(=O)CN2C(=O)c1ccccc1`, the Ki is more than 10000 nM in assay [1]; 1800 nM in assay [2]; 1170 nM on Cysteine proteinase B; 600 nM at Cruzipain; 5.5 nM on Cathepsin K; more than 3000 nM on Cathepsin S.

Turning to `CC(C)C[C@H](NC(=O)c1ccc(C(C)(C)C)cc1)C(=O)N1CC[C@@H]2[C@H]1C(=O)CN2C(=O)c1ccccc1`, the inhibition constant Ki in assay [1] is more than 10000 nM; in assay [2], more than 3500 nM; at Cysteine proteinase B, 691 nM; on Cruzipain it was 173 nM; on Cathepsin K it was 10.1 nM; at Cathepsin S, more than 4500 nM.

As for `CC(C)C[C@H](NC(=O)c1ccc(N(C)C)cc1)C(=O)N1OC[C@@H]2[C@H]1C(=O)CN2C(=O)c1ccccc1`, the Ki is more than 6000 nM in assay [1]; more than 4300 nM in assay [2]; 1000 nM at Cysteine proteinase B; 2500 nM on Cruzipain; 40.1 nM at Cathepsin K; more than 3000 nM on Cathepsin S.

For the origin of these results see ChEMBL document CHEMBL1141996, “cis-6-oxo-hexahydro-2-oxa-1,4-diazapentalene and cis-6-oxo-hexahydropyrrolo[3,2-c]pyrazole based scaffolds: design rationale, synthesis and cysteinyl proteinase inhibition” (Bioorg Med Chem Lett, 2005).
